Data published in the supplement of paper PMC11208160.

experiment: recombinant barcode read abundance after kanamycin selection (control-corrected) (log10(CPM+1)); higher = more efficient recombination; sequences stand for … in AGTGCAGAGAAAATCGGCCAGTTTTCTCTGCCTGCAGTCCGCATGCCGT…AGATTTATGCAGCGGACTGCCTTTCTCCCAAAGTGATAAACCGGACAGTATCATGGACCGGTTTTCCCGGTAATCCGTATTTGCAAGGTTGGTTTCACT; site = the 11-nt target
Summary of the method: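 This pooled E. coli screen matched targets with IS621 bridge RNA target-binding loops. Plating was done in duplicate on chloramphenicol/ampicillin LB agar as a control and on chloramphenicol/ampicillin/kanamycin plus 0.1 mM IPTG. Recombination efficiency reflects barcode counts at recombinant junctions as counts per million, averaged and control-corrected. The figures are log10(CPM+1).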
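Further: IS621 recombinase and bridge RNA in Escherichia coli cells.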

Compared with “TAGCATGCTTGGGTTCTAACCTGTTGCAA (site TAGCATGCTAT)”, “TAGCATGCTTGGGTTCTAACCTGTTGCAA (site TAGCATGCTCT)” is higher in “recombinant barcode read abundance (log10)” value: 0.382 for the first, 0.597 for the second.

First: TAGCATGCTTGGGTTCTAACCTGTTGCAA (site TAGCATGCTGT)
Second: TAGCATGCTTGGGTTCTAACCTGTTGCAA (site TAGCATGCTTT)
The “recombinant barcode read abundance (log10)” value of the first is lower: 0.115 for the first, 0.324 for the second.

Compared with “TAGCATGCTTGGGTTCTAACCTGTTGCAC (site TAGCATGCTAT)”, “TAGCATGCTTGGGTTCTAACCTGTTGCAC (site TAGCATGCTCT)” is lower in “recombinant barcode read abundance (log10)” value: 0.677 for the first, 0.203 for the second.

Compared with “TAGCATGCTTGGGTTCTAACCTGTTGCAC (site TAGCATGCTGT)”, “TAGCATGCTTGGGTTCTAACCTGTTGCAC (site TAGCATGCTTT)” is lower in “recombinant barcode read abundance (log10)” value: 0.978 for the first, 0.306 for the second.

“TAGCCTTCTTGGGTTCTAACCTGTTGCTA (site TAGCCTTCTCA)” and “TAGCCTTCTTGGGTTCTAACCTGTTGCTA (site TAGCCTTCTTA)” are within 0.2 log units of each other in “recombinant barcode read abundance (log10)” value: 0.0251 for the first, 0.129 for the second.

Compared with “TAGCGGCCTTGGGTTCTAACCTGTTGCGG (site CCAGTATCTAT)”, “TAGCGGCCTTGGGTTCTAACCTGTTGCGG (site TAGCGGCCTCC)” is higher in “recombinant barcode read abundance (log10)” value: 0.453 for the first, 2.23 for the second.

Compared with “TAGGAAACTTGGGTTCTAACCTGTTGCGT (site TAGGAAACTAC)”, “TAGGAAACTTGGGTTCTAACCTGTTGCGT (site TAGGACACTAC)” is lower in “recombinant barcode read abundance (log10)” value: 2.98 for the first, 0.0791 for the second.

First: TAGGAAACTTGGGTTCTAACCTGTTGCGT (site TAGGAGACTAC)
Second: TAGGAAACTTGGGTTCTAACCTGTTGCGT (site TAGGATACTAC)
The “recombinant barcode read abundance (log10)” value of the first is higher: 0.781 for the first, 0.447 for the second.

Going from “TAGGCGACTTGGGTTCTAACCTGTTGCTA (site TAGGCGACTTA)” to “TAGGCGACTTGGGTTCTAACCTGTTGCTA (site TAGGGCACTTA)”, the “recombinant barcode read abundance (log10)” value falls from 0.454 to 0.156.

“TAGGCGACTTGGGTTCTAACCTGTTGCTT (site TAGACGACTAA)” and “TAGGCGACTTGGGTTCTAACCTGTTGCTT (site TAGCCGACTAA)” are within 0.2 log units of each other in “recombinant barcode read abundance (log10)” value: 0.177 for the first, 0.182 for the second.

First: TAGGCGACTTGGGTTCTAACCTGTTGCTT (site TAGGCGACTAA)
Second: TAGGCGACTTGGGTTCTAACCTGTTGCTT (site TAGTCGACTAA)
The “recombinant barcode read abundance (log10)” value of the first is higher: 0.395 for the first, 0 for the second.

Going from “TAGGCGTCTTGGGTTCTAACCTGTTGCAG (site TAGCCTTCTCT)” to “TAGGCGTCTTGGGTTCTAACCTGTTGCAG (site TAGGCGTCTCT)”, the “recombinant barcode read abundance (log10)” value rises from 0.0835 to 2.27.

“TAGGCTCCTTGGGTTCTAACCTGTTGCAC (site TAGGCTCCTAT)” and “TAGGCTCCTTGGGTTCTAACCTGTTGCAC (site TAGGCTCCTCT)” are within 0.2 log units of each other in “recombinant barcode read abundance (log10)” value: 0.2 for the first, 0.0904 for the second.

First: TAGGCTCCTTGGGTTCTAACCTGTTGCAC (site TAGGCTCCTGT)
Second: TAGGCTCCTTGGGTTCTAACCTGTTGCAC (site TAGGCTCCTTT)
The “recombinant barcode read abundance (log10)” value of the first is higher: 1.94 for the first, 0.726 for the second.

First: TAGGCTCCTTGGGTTCTAACCTGTTGCTT (site TACGGTCCTAA)
Second: TAGGCTCCTTGGGTTCTAACCTGTTGCTT (site TAGGCTCCTAA)
The “recombinant barcode read abundance (log10)” value of the first is lower: 0.0632 for the first, 0.277 for the second.

First: TAGGCTGCTTGGGTTCTAACCTGTTGCAT (site TAGGCTGCTAT)
Second: TAGGCTGCTTGGGTTCTAACCTGTTGCAT (site TTGGGTGCTAT)
The “recombinant barcode read abundance (log10)” value of the first is higher: 0.882 for the first, 0.0414 for the second.
